pKd: −log10 of the molar value. Read-outs that look alike come from different tables or passages of the source.
Molecular target: T1, ecdysteroid receptor complex in Drosophila Kc cell cytosolic extract (Drosophila melanogaster, UniProt P34021)
T1 construct: The supernatant, containing the cytosolic protein extract; endogenous in cells; host or cells: Drosophila Kc167 cells, cytosolic extract
T1 sequence (P34021 1-878): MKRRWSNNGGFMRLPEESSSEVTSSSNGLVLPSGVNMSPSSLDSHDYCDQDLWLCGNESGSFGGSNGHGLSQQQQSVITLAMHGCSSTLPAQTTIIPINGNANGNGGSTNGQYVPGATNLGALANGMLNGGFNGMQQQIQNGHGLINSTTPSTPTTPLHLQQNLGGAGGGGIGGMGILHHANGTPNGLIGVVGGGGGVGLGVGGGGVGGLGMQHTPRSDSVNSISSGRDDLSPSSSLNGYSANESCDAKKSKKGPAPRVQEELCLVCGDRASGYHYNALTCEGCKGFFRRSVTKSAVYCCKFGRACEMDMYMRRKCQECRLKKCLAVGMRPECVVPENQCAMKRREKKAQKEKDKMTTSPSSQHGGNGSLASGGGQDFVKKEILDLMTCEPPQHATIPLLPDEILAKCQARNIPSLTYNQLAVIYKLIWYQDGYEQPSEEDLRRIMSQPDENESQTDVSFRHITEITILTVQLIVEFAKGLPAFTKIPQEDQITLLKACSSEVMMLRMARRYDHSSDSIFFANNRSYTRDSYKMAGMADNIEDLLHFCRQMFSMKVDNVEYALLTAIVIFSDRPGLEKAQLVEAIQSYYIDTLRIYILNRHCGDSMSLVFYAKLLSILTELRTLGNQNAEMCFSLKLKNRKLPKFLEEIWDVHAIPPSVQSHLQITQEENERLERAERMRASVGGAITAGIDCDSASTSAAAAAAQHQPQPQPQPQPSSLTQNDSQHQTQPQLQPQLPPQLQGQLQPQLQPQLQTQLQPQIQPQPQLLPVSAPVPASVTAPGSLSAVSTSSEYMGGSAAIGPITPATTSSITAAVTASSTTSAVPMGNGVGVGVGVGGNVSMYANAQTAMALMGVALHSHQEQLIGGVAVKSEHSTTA
T1 sequence (P20153 1-508 partner): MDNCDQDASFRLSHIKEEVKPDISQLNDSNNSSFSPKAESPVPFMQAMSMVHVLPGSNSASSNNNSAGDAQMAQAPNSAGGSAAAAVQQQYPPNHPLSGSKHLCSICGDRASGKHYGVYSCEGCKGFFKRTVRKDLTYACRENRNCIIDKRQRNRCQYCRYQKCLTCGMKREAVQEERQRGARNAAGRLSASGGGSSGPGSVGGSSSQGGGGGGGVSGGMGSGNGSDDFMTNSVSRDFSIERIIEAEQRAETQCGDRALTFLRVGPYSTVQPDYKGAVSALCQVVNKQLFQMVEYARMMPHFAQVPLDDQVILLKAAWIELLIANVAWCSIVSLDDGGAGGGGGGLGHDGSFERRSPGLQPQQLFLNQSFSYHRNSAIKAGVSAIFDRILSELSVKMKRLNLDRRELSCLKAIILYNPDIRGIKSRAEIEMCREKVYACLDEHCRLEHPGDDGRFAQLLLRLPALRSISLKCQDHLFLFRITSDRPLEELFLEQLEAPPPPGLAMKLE
Experiment: Competitive 3H-ponasterone A binding assay, Kc cytosolic ecdysone receptor extract
Conditions: for Kc log(1/EC50) / EC50: Kc cells/extract; for pKd: read-out: Kd for Kc cells; for EC50: read-out: Kc log(1/EC50) (converted)
Procedure: The dipteran cell line Kc167, originally derived from Drosophila embryos (see Echalier, G. and Ohanessian, A. (1969) C. R. Acad. Sci., 268, 1771) was obtained from Dr. Peter Cherbas (Indiana University) and maintained as described (Cherbas, L., et. al., (1994), Methods in Cell Biology, 44, 161-179). A 400 ml culture of Kc Cells (3×10^7 cells per ml) was centrifuged at 700×g for 10 minutes at room temperature to pellet the cells. The supernatant was aspirated and the pellet was resuspended in 70 ml of cold TM buffer (10 mM Tris, 5 mM MgCl2, 1 mM DTT, pH 7.2). After a 10 minute incubation on ice, the cells were centrifuged at 2,300×g. The supernatant was discarded. The cell pellet was frozen at −20° C. for 1 hour. The frozen cell pellet was thawed slowly on ice and homogenized in a cold Potter-Elvehjem homogenizer using a teflon pestle on a Caframo homogenizer motor, at setting 500 with 10 up and down strokes at 4° C. This slurry was centrifuged at 100,000×g in a swinging bucket rotor for 60 minutes. The supernatant, containing the cytosolic protein extract was diluted with T buffer (10 mM Tris, 1 mM DTT, pH 7.2) to a protein concentration of 5 mg/ml. This extract was used immediately for ligand binding assays.
^3H ponasterone A, a potent phytoecdysteroid, (66,000 dpm; specific activity 170 Ci/mmole; NEN Life Science Products, Boston, Mass.) was mixed with 100 μl Kc cytosolic or Plodia nuclear ecdysone receptor extracts in […] glass test tubes in the absence or presence of 10 μM unlabelled 20-hydroxyecdysone (20E) to obtain an estimate of total or non-specific respectively, binding of tritiated ponasterone A. The tubes were vortexed and incubated overnight at 4° C. for Kc cytosolic extracts or 1.5 hours for Plodia nuclear extracts for binding reactions to reach equilibrium. At the end of equilibrium binding times, the bound tritiated ponasterone A was separated from the unbound by addition of ice-cold 600 μl or 300 μl dextran-coated charcoal solution (500 mg of Sigma HCL-washed activated charcoal, 50 mg Pharmacia Dextran T70, 50 ml T-buffer) to Kc or Plodia extracts, respectively. The tubes were vortexed briefly and centrifuged at 7,000×g to pellet the charcoal. The supernatant, 600 μl or 300 μl for Kc or Plodia extract reactions, respectively, containing tritiated ponasterone A bound to proteins, was aspirated into liquid scintillation vials containing 5 ml scintillation cocktail (ReadySafe®, Beckmann) each The mixture was vortexed and the amount of total or non-specifically bound radioactivity measured in a Beckmann LS500 liquid scinitllation counter with a 60% counting efficiency for tritium.
The concentrations of competitors that inhibited 50% of tritiated ponasterone A binding (IC50) was determined by incubating Kc or Plodia nuclear extracts or extracts of bacteria producing CfEcR(CDEF)-GST and CfUSP-GST fusions proteins with ^3H-ponasterone A (66,000 dpm per reaction) in the presence of a range of concentrations (0.1 nM to 10 μM) of test compounds. In the case of binding reactions using bacterial fusion proteins, 20 or one μl extract of bacteria producing CfEcR(CDEF)-GST or CfUSP-GST fusion proteins, respectively, were included per binding reaction. The assay conditions and determination of total and non-specific binding was as described above. The volume of competitor in solvent, like that for 20E or solvent alone, was kept at 1% of total reaction volume by using a 100 fold concentrated stock solution (i.e. a 100 fold dilution of stock solutions). The remainder of the assay was as described above. Each reaction was carried out in duplicate per concentration per test compound. Specific binding of ^3H-ponasterone A was determined by subtracting non-specific binding (that obtained in the presence of 10 μM 20E) from total (no competitor) or competed radioactivity bound. The data for each test compound was analyzed using IGOR Pro software (WaveMetrics, Lake Oswego, Oreg.) to calculate IC50 value. […]

| Structure (SMILES) | Kc log(1/EC50) | pKd (Table 2) | pKd (Table 3) | EC50 [nM] |
| --- | --- | --- | --- | --- |
| CC(C)CC[C@@H](O)[C@](C)(O)[C@H]1CC[C@@]2(O)C3=CC(=O)[C@]4(O)C[C@@H](O)[C@@H](O)C[C@]4(C)[C@H]3[C@H](O)C[C@]12C [CE-3, muristerone A, reference compound] | 7.96 | 8.64 | 8.70 |  |
| CCc1c(OC)cccc1C(=O)NN(C(=O)c1cccc(OC)c1)C(C)(C)C [Ligand 1] | 7.36 | 7.40 | 7.40 |  |
| CC(C)CC[C@@H](O)[C@](C)(O)[C@H]1CC[C@@]2(O)C3=CC(=O)[C@@H]4C[C@@H](O)[C@@H](O)C[C@]4(C)[C@H]3CC[C@]12C [CE-4, ponasterone A, reference compound] |  | 9.15 | 9.15 |  |
| CC(C)(C)N(NC(=O)c1ccccc1)C(=O)c1ccccc1 [CE-2, 1,2-dibenzoyl-1-tert-butyl-hydrazine, reference compound] |  | 5.70 | 5.70 | 3020 |
| CCc1c(OC)cccc1C(=O)NN(C(=O)c1cc(F)cc(F)c1)C(C)(C)C [Ligand 4] | 7.41 | 7.33 | 7.59 |  |
| CCOc1cccc(C(=O)NN(C(=O)c2cc(C)cc(C)c2)C(C)(C)C)c1CC [Ligand 12] | 8.10 | 8.28 | 8.30 |  |
| CCc1c(OC)cccc1C(=O)NN(C(=O)c1cc(Cl)cc(Cl)c1)C(C)(C)C [Ligand 13] | 7.44 | 7.19 | 7.62 |  |
| COc1cccc(C(=O)NN(C(=O)c2cc(C)cc(C)c2)C(C)(C)C)c1C [Ligand 3] | 6.74 | 6.91 | 6.91 |  |
| CCc1ccc(C(=O)NN(C(=O)c2cc(C)cc(C)c2)C(C)(C)C)cc1 [CE-1, N-(4-ethylbenzoyl)-N′-(3,5-dimethylbenzoyl)-N′-tert-butyl-hydrazine, reference compound] |  | 6.96 | 6.72 | 282 |
| CCc1c(OC)cccc1C(=O)NN(C(=O)c1cc(C)cc(C)c1)C(C)(C)C [Ligand 5] | 7.70 | 7.88 | 7.89 |  |
| Cc1cc(C)cc(C(=O)N(NC(=O)c2ccc3c(c2C)OCCO3)C(C)(C)C)c1 [Ligand 2] | 7.16 | 7.22 | 7.33 |  |

— US20010044151A1, “Ligands for modulating the expression of exogenous genes via an ecdysone receptor complex” (priority 1998, published 2001)
